Data from patent US9233095B2, “Small molecule RNase inhibitors and methods of use” (University of Rochester, priority 2011, dated 2016).
Values after ≈ are worked out from the molar mass of the structure shown. Where two headings read alike, the source gives them in different places.

Tests used:
Assay in all cases: CLSI broth microdilution MIC
S. pneumoniae (MDR) = assay type: cell-based; details: Streptococcus pneumoniae
Description: (§1) In some examples, compounds can be further assayed using the Mueller Hinton (MH) broth antibacterial assay as specified by the Clinical and Laboratory Standards Institute MIC broth microdilution protocol (see Methods for Dilution Antimicrobial Susceptibility Tests for Bacteria That Grow Aerobically; Approved Standard, In The Clinical and Laboratory Standards Institute (CLSI, formerly NCCLS), 7th ed., January 2006, 26 (2), M7-A7; see also Performance Standards for Antimicrobial Susceptibility Testing; Eighteenth Informational Supplement, In The Clinical and Laboratory Standards Institute (CLSI, formerly NCCLS), January 2008, 28 (1), M100-S18).
(§2) With the exception of RN4220-derivatives, in vitro activities of RNPA1000 against bacteria were determined by the broth microdilution method according to the Clinical and Laboratory Standards Institute (CLSI) guidelines using cation adjusted Mueller-Hinton broth or MH broth supplemented with 5% lysed horse blood (for testing Streptotococcus spp.). Microtiter plates containing serial dilutions of RNPA1000 (0, 4, 8, 16, 32, 64, and 128 μg/ml) were inoculated with 10^5 colony forming units (CFU)/ml and incubated for 18 hr at 37° C. […] The MIC value for each S. aureus strain was determined to be the median score of replicate measurements (n=5). Wells containing concentrations of RNPA1000≧MIC were plated for minimal bactericidal measurement. Where possible, experiments with VRSA strains were performed in a laminar flow hood to minimize potential for equipment contamination. For RN4220 cells containing plasmid vector (pCN51), RnpA overproducing plasmid (pRNPA-S) or RnpA underproducing plasmid (pRNPA-A.S.) in vitro antimicrobial activity of RNPA1000 was performed by the microdilution method as described above, except that cells were grown in Tryptic Soy Broth medium supplemented with 2.5 μM CdCl2 and 0, 1, 2, 4, 8, 16, 32, 64, or 128 μg/ml RNPA1000. Time-kill assays were also performed to monitor the antimicrobial properties of RNPA1000 for S. aureus strain UAMS-1 in the absence and presence of 0.25, 0.5, 2, and 4 times the strain's MIC for oxacillin (1 μg/ml), rifampicin (0.5 μg/ml), vancomycin (2 μg/ml), or daptomycin (1 μg/ml). The indicated amount of RNPA1000 and/or commercial antibiotic were added to mid-exponential phase (2×10^8 cfu/ml) S. aureus strain UAMS-1 cells and incubated at 37° C. Aliquots were removed at 0, 2, 4, 8, and 24 hr post-antimicrobial challenge, serial diluted, and plated to enumerate resulting cfu/ml. All time-kill assays were repeated at least 3 times.

S. aureus (VRSA) = assay type: cell-based; details: Staphylococcus aureus
Description: as §1, §2

S. pneumoniae = assay type: cell-based; details: Streptococcus pneumoniae
Description: as §1, §2

B. cereus = assay type: cell-based; details: Bacillus cereus; B. cereus Isolate 1
Description: as §1, §2

S. agalactiae = assay type: cell-based; details: Streptococcus agalactiae
Description: as §1, §2

S. pyogenes = assay type: cell-based; details: Streptococcus pyogenes; S. pyogenes Isolate 1
Description: as §1, §2

S. epidermidis = assay type: cell-based; details: Staphylococcus epidermidis
Description: as §1, §2

S. aureus (MRSA) = assay type: cell-based; details: Staphylococcus aureus
Description: as §1, §2

S. sanguis = assay type: cell-based; details: S. sanguis Isolate 1
Description: as §1, §2

S. aureus (VISA) = assay type: cell-based; details: Staphylococcus aureus
Description: as §1, §2

S. bovis = assay type: cell-based; details: Salmonella enterica; S. bovis ATCC49147
Description: as §1, §2

E. coli = assay type: cell-based, Escherichia coli
Description: as §1, §2

With `Cc1cc(/C=C(/C#N)C(=O)Nc2cccc(Br)c2)c(C)n1-c1ccc(C(=O)O)cc1` [RNPA1000] the MIC (S. pneumoniae (MDR); S. pneumoniae (MDR) Isolate 1) was 32 µg/mL (≈ 68.9 µM), the MIC (S. pneumoniae (MDR); S. pneumoniae (MDR) Isolate 2) was 32 µg/mL (≈ 68.9 µM) and the MIC (S. pneumoniae (MDR); S. pneumoniae (MDR) Isolate 3) was 16 µg/mL (≈ 34.5 µM). It also gave an MIC (S. pneumoniae (MDR); S. pneumoniae (MDR) Isolate 4) of 32 µg/mL (≈ 68.9 µM), an MIC (S. pneumoniae (MDR); S. pneumoniae (MDR) Isolate 5) of 16 µg/mL (≈ 34.5 µM) and an MIC (S. aureus (VRSA); strain VRSA-VRS1) of 16 µg/mL (≈ 34.5 µM). For the same compound, the MIC (S. aureus (VRSA); strain VRSA-VRS10) was 32 µg/mL (≈ 68.9 µM), the MIC (S. pneumoniae; S. pneumoniae Isolate 1) was 16 µg/mL (≈ 34.5 µM) and the MIC (S. pneumoniae; S. pneumoniae Isolate 2) was 16 µg/mL (≈ 34.5 µM). It also gave an MIC (S. pneumoniae; S. pneumoniae Isolate 3) of 16 µg/mL (≈ 34.5 µM), an MIC (S. pneumoniae; S. pneumoniae Isolate 4) of 32 µg/mL (≈ 68.9 µM) and an MIC (S. pneumoniae; S. pneumoniae Isolate 5) of 16 µg/mL (≈ 34.5 µM). The MIC (B. cereus) was 8 µg/mL (≈ 17.2 µM), the MIC (S. agalactiae; S. agalactiae Isolate 1) was 16 µg/mL (≈ 34.5 µM) and the MIC (S. agalactiae; S. agalactiae Isolate 2) was 32 µg/mL (≈ 68.9 µM). It also gave an MIC (S. agalactiae; S. agalactiae Isolate 3) of 32 µg/mL (≈ 68.9 µM), an MIC (S. agalactiae; S. agalactiae Isolate 4) of 32 µg/mL (≈ 68.9 µM) and an MIC (S. pyogenes) of 8 µg/mL (≈ 17.2 µM). It also gave an MIC (S. epidermidis; S. epidermidis Isolate 1) of 16 µg/mL (≈ 34.5 µM), an MIC (S. epidermidis; S. epidermidis Isolate 2) of 8 µg/mL (≈ 17.2 µM) and an MIC (S. epidermidis; S. epidermidis Isolate 3) of 8 µg/mL (≈ 17.2 µM). It also gave an MIC (S. epidermidis; S. epidermidis Isolate 4) of 8 µg/mL (≈ 17.2 µM), an MIC (S. epidermidis; S. epidermidis Isolate 5) of 8 µg/mL (≈ 17.2 µM) and an MIC (S. aureus (MRSA); MRSA / USA100, strain USA100) of 26 µg/mL (≈ 56 µM). The MIC (S. aureus (MRSA); MRSA / USA200, strain USA200) was 32 µg/mL (≈ 68.9 µM), the MIC (S. aureus (MRSA); MRSA / USA300, strain USA300 (USA300-0114)) was 23 µg/mL (≈ 49.5 µM) and the MIC (S. aureus (MRSA); MRSA / USA400, strain USA400) was 23 µg/mL (≈ 49.5 µM). It also gave an MIC (S. aureus (MRSA); MRSA / USA500, strain USA500) of 23 µg/mL (≈ 49.5 µM), an MIC (S. aureus (MRSA); MRSA / USA600, strain USA600) of 32 µg/mL (≈ 68.9 µM) and an MIC (S. aureus (MRSA); MRSA / USA700, strain USA700) of 32 µg/mL (≈ 68.9 µM). It also gave an MIC (S. aureus (MRSA); MRSA / USA800, strain USA800) of 23 µg/mL (≈ 49.5 µM), an MIC (S. aureus (MRSA); MRSA, strain USA900) of 32 µg/mL (≈ 68.9 µM) and an MIC (S. aureus (MRSA); MRSA, strain USA1000) of 29 µg/mL (≈ 62.5 µM). The MIC (S. aureus (MRSA); MRSA, strain USA1100) was 32 µg/mL (≈ 68.9 µM), the MIC (S. sanguis) was 16 µg/mL (≈ 34.5 µM) and the MIC (S. aureus (VISA); NRS 1 / VISA, strain VISA-NRS1) was 32 µg/mL (≈ 68.9 µM). The MIC (S. aureus (VISA); NRS 3 / VISA, strain VISA-NRS3) was 16 µg/mL (≈ 34.5 µM), the MIC (S. aureus (VISA); VISA Isolate 3) was 16 µg/mL (≈ 34.5 µM) and the MIC (S. aureus (VISA); VISA Isolate 4) was 32 µg/mL (≈ 68.9 µM). The MIC (S. aureus (VISA); VISA Isolate 5) was 16 µg/mL (≈ 34.5 µM), the MIC (S. bovis) was 32 µg/mL (≈ 68.9 µM) and the effect on growth (E. coli) was “did not affect”. For the same compound, the MIC (E. coli; E. coli Isolate 2) was greater than 64 µg/mL, the MIC (E. coli; E. coli Isolate 3) was greater than 64 µg/mL and the MIC (E. coli; E. coli Isolate 4) was greater than 64 µg/mL. The MIC (E. coli; E. coli Isolate 5) was greater than 64 µg/mL and the MIC (E. coli; Escherichia coli, E. coli Isolate 1, read-out: MIC) was greater than 64 µg/mL.
